Molecular target: T1, TNIK kinase [amino acid sequence (1-367), Invitrogen] (Homo sapiens, UniProt Q9UKE5)
T1 construct: purchased Invitrogen
Assay: TNIK kinase inhibition assay (Z-lyte FRET-peptide)
Format: biochemical
Details: 0.625 nM TNIK kinase, 2 μM Ser/Thr 7 peptide, 64 μM ATP, one hour at room temperature
Procedure: Z-lyte assay kit was purchased from Invitrogen. A site-specific protease recognizes and cleaves non-phosphorylated FRET-peptides. Phosphorylation of FRET-peptides suppresses cleavage by protease and will maintain FRET from donor to acceptor.
5 μl of Development Reagent A solution was then added to cleave non-phosphorylated peptide with a dilution 1:65000 in Development Buffer B. The assay plate was incubated at room temperature for another one hour and then read in the Envision plate reader (PerkinElmer).

T1 sequence (Q9UKE5 1-367): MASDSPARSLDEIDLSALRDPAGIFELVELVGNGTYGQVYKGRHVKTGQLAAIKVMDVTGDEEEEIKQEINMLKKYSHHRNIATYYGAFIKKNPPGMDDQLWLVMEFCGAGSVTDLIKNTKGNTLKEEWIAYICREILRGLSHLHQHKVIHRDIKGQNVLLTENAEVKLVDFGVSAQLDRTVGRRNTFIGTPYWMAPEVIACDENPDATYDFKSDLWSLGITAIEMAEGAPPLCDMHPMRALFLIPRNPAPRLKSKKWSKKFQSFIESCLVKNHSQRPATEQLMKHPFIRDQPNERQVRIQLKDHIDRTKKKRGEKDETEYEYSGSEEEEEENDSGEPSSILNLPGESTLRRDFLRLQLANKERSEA

| Molecule | IC50 [µM] |
| --- | --- |
| CC(C)n1cnc(-c2ccc(F)cc2)c1-c1coc(C(=O)Nc2ccc(N3CCN(C)CC3)cc2F)n1 [Compound 27, N-(2-fluoro-4-(4-methylpiperazin-1-yl)phenyl)-4-(4-(4-fluorophenyl)-1-isopropyl-1H-imidazol-5-yl)oxazole-2-carboxamide] | 0.012 to 0.15 |
| [2H]C([2H])([2H])N1CC(c2ccc(NC(=O)c3c[nH]c(-c4c(-c5ccc(F)cc5)ncn4C(C)C)n3)nc2)C1 [Compound 113] | 0.012 to 0.15 |
| CC(C)n1cnc(-c2ccc(F)cc2)c1-c1nc(C(=O)Nc2ccc(C3CN(C)C3)cc2F)co1 [Compound 101, N-(2-fluoro-4-(1-methylazetidin-3-yl)phenyl)-2-(4-(4-fluorophenyl)-1-isopropyl-1H-imidazol-5-yl)oxazole-4-carboxamide] | 0.001 to 0.012 |
| CC(C)n1cnc(-c2ccc(F)cc2)c1-c1nc(C(=O)Nc2ncc(N3CCN(C)CC3)cn2)cs1 [Compound 46, 2-(4-(4-fluorophenyl)-1-isopropyl-1H-imidazol-5-yl)-N-(5-(4-methylpiperazin-1-yl)pyrimidin-2-yl)thiazole-4-carboxamide] | > 0.15 |
| CC(C)c1onc(-c2ccc(F)cc2)c1-c1nc(C(=O)Nc2ccc(C3CN(C)C3)cn2)co1 [Compound 107, 2-(3-(4-fluorophenyl)-5-isopropylisoxazol-4-yl)-N-(5-(1-methylazetidin-3-yl)pyridin-2-yl)oxazole-4-carboxamide] | 0.012 to 0.15 |
| CC(C)n1cnc(-c2ccc(F)cc2)c1-c1csc(C(=O)Nc2ccc(N3C[C@H]4CC[C@@H](C3)N4C)cn2)n1 [Compound 38, 4-(4-(4-fluorophenyl)-1-isopropyl-1H-imidazol-5-yl)-N-(5-((1R,5S)-8-methyl-3,8-diazabicyclo[3.2.1]octan-3-yl)pyridin-2-yl)thiazole-2-carboxamide] | 0.001 to 0.012 |
| O=C(Nc1ccc(C2COC2)cc1F)c1coc(-c2c(-c3ccc(F)cc3)ncn2C2COC2)n1 [Compound 80, N-(2-fluoro-4-(oxetan-3-yl)phenyl)-2-(4-(4-fluorophenyl)-1-(oxetan-3-yl)-1H-imidazol-5-yl)oxazole-4-carboxamide] | 0.012 to 0.15 |
| CC(C)n1cnc(-c2ccc(F)cc2)c1-c1coc(C(=O)Nc2ccc(N3CC4CCC(C3)N4C)cn2)n1 [Compound 39, 4-(4-(4-fluorophenyl)-1-isopropyl-1H-imidazol-5-yl)-N-(5-(8-methyl-3,8-diazabicyclo[3.2.1]octan-3-yl)pyridin-2-yl)oxazole-2-carboxamide] | 0.012 to 0.15 |
| [2H]C([2H])([2H])N1CC(c2ccc(NC(=O)c3csc(-c4c(-c5ccc(F)cc5)ncn4C([2H])(C)C)n3)nc2)C1 [Compound 110, 2-[3-(1-deuterio-1-methyl-ethyl)-5-(4-fluorophenyl)imidazol-4-yl]-N-[5-[1-(trideuteriomethyl)azetidin-3-yl]-2-pyridyl]thiazole-4-carboxamide] | 0.001 to 0.012 |
| O=C(Nc1ccc(N2CCOCC2)cn1)c1c[nH]c(-c2c(-c3ccc(F)cc3)ncn2C2CC(F)(F)C2)n1 [Compound 67, 3′-(3,3-difluorocyclobutyl)-5′-(4-fluorophenyl)-N-(5-morpholinopyridin-2-yl)-1H,3′H-[2,4′-biimidazole]-4-carboxamide] | 0.012 to 0.15 |
| O=C(NC1CCOCC1)c1csc(-c2c(-c3ccc(F)cc3)ncn2C2CC(F)(F)C2)n1 [Compound 77, 2-(1-(3,3-difluorocyclobutyl)-4-(4-fluorophenyl)-1H-imidazol-5-yl)-N-(tetrahydro-2H-pyran-4-yl)thiazole-4-carboxamide] | > 0.15 |
| CC(C)n1cnc(-c2ccc(F)cc2)c1-c1ncc(C(=O)Nc2ccc(N3CCC4(CC3)CN(C)C4)cc2)[nH]1 [Compound 19, 5′-(4-fluorophenyl)-3′-isopropyl-N-(4-(2-methyl-2,7-diazaspiro[3.5]nonan-7-yl)phenyl)-1H,3′H-[2,4′-biimidazole]-5-carboxamide] | 0.001 to 0.012 |
| [2H]C([2H])([2H])N1CC(c2ccc(NC(=O)c3c[nH]c(-c4c(-c5ccc(F)cc5)ncn4C4CCC4)n3)c(F)c2)C1 [Compound 120, 2-[3-cyclobutyl-5-(4-fluorophenyl)imidazol-4-yl]-N-[2-fluoro-4-[1-(trideuteriomethyl)azetidin-3-yl]phenyl]-1H-imidazole-4-carboxamide] | 0.001 to 0.012 |
| 2-(4-(4-fluorophenyl)-1-isopropyl-1H-imidazol-5-yl)-N-(5-((1R,5S)-8-methyl-8-azabicyclo[3.2.1]octan-3-yl)pyridin-2-yl)oxazole-4-carboxamide [Compound 62] | 0.012 to 0.15 |
| CC(C)c1onc(-c2ccc(F)cc2)c1-c1nc(C(=O)Nc2ccc(N3CC4CC(C3)N4C)cn2)co1 [Compound 104, 2-(3-(4-fluorophenyl)-5-isopropylisoxazol-4-yl)-N-(5-(6-methyl-3,6-diazabicyclo[3.1.1]heptan-3-yl)pyridin-2-yl)oxazole-4-carboxamide] | 0.012 to 0.15 |
| [2H]C(C)(C)n1cnc(-c2ccc(F)cc2)c1-c1nc(C(=O)Nc2ccc(N3CCN(CC)CC3)cc2)c[nH]1 [Compound 135, 2-[3-(1-deuterio-1-methyl-ethyl)-5-(4-fluorophenyl)imidazol-4-yl]-N-[4-(4-ethylpiperazin-1-yl)phenyl]-1H-imidazole-4-carboxamide] | 0.012 to 0.15 |
| CN1C2CC1CN(c1ccc(NC(=O)c3c[nH]c(-c4c(-c5ccc(F)cc5)ncn4C4CCC4)n3)nc1)C2 [Compound 50, 3′-cyclobutyl-5′-(4-fluorophenyl)-N-(5-(6-methyl-3,6-diazabicyclo[3.1.1]heptan-3-yl)pyridin-2-yl)-1H,3′H-[2,4′-biimidazole]-4-carboxamide] | 0.001 to 0.012 |
| O=C(Nc1ccc(C2COC2)cn1)c1csc(-c2c(-c3ccc(F)cc3)ncn2C2COC2)n1 [Compound 78, 2-(4-(4-fluorophenyl)-1-(oxetan-3-yl)-1H-imidazol-5-yl)-N-(5-(oxetan-3-yl)pyridin-2-yl)thiazole-4-carboxamide] | 0.001 to 0.012 |
| CC(C)n1cnc(-c2ccc(F)cc2)c1-c1nc(C(=O)Nc2ccc(N3CCN(C)CC3)c(F)c2F)c[nH]1 [Compound 17, N-(2,3-difluoro-4-(4-methylpiperazin-1-yl)phenyl)-5′-(4-fluorophenyl)-3′-isopropyl-1H,3′H-[2,4′-biimidazole]-4-carboxamide] | 0.001 to 0.012 |
| [2H]C([2H])([2H])N1CC(c2ccc(NC(=O)c3csc(-c4c(C(C)C)cnn4-c4ccc(F)cc4)n3)nc2)C1 [Compound 116, 2-(1-(4-fluorophenyl)-4-isopropyl-1H-pyrazol-5-yl)-N-(5-(1-(trideuteriomethyl)azetidin-3-yl)pyridin-2-yl)thiazole-4-carboxamide] | 0.001 to 0.012 |
| CC(C)n1cnc(-c2ccc(F)cc2)c1-c1nc(C(=O)Nc2ccc(N3CCN(C)CC3)nc2)c[nH]1 [Compound 22, 5′-(4-fluorophenyl)-3′-isopropyl-N-(6-(4-methylpiperazin-1-yl)pyridin-3-yl)-1H,3′H-[2,4′-biimidazole]-4-carboxamide] | 0.012 to 0.15 |
| CC(C)n1cnc(-c2ccc(F)cc2)c1-c1csc(C(=O)Nc2ccc(N3CCN(C)CC3)cc2)n1 [Compound 4, 4-(4-(4-fluorophenyl)-1-isopropyl-1H-imidazol-5-yl)-N-(4-(4-methylpiperazin-1-yl)phenyl)thiazole-2-carboxamide] | 0.001 to 0.012 |
| O=C(Nc1ccc(C2COC2)cn1)c1coc(-c2c(-c3ccc(F)cc3)ncn2C2COC2)n1 [Compound 82, 2-(4-(4-fluorophenyl)-1-(oxetan-3-yl)-1H-imidazol-5-yl)-N-(5-(oxetan-3-yl)pyridin-2-yl)oxazole-4-carboxamide] | 0.012 to 0.15 |
| CN1[C@@H]2CC[C@H]1CN(c1ccc(NC(=O)c3c[nH]c(-c4c(-c5ccc(F)cc5)ncn4C4CCC4)n3)nc1)C2 [Compound 48, 3′-cyclobutyl-5′-(4-fluorophenyl)-N-(5-((1R,5S)-8-methyl-3,8-diazabicyclo[3.2.1]octan-3-yl)pyridin-2-yl)-1H,3′H-[2,4′-biimidazole]-4-carboxamide] | 0.001 to 0.012 |
| CN1C2CCC1CN(c1ccc(NC(=O)c3c[nH]c(-c4c(-c5ccc(F)cc5)ncn4C4CC4)n3)nc1)C2 [Compound 47, 3′-cyclopropyl-5′-(4-fluorophenyl)-N-(5-(8-methyl-3,8-diazabicyclo[3.2.1]octan-3-yl)pyridin-2-yl)-1H,3′H-[2,4′-biimidazole]-4-carboxamide] | 0.001 to 0.012 |
| [2H]C([2H])([2H])N1CC(c2ccc(NC(=O)c3c[nH]c(-c4c(-c5ccc(F)cc5)ncn4C4CCC4)n3)nc2)C1 [Compound 119, 2-[3-cyclobutyl-5-(4-fluorophenyl)imidazol-4-yl]-N-[5-[1-(trideuteriomethyl)azetidin-3-yl]-2-pyridyl]-1H-imidazole-4-carboxamide] | 0.012 to 0.15 |
| CC(C)c1onc(-c2ccc(F)cc2)c1-c1nc(C(=O)Nc2ccc(C3CN(C)C3)cc2F)co1 [Compound 106, N-(2-fluoro-4-(1-methylazetidin-3-yl)phenyl)-2-(3-(4-fluorophenyl)-5-isopropylisoxazol-4-yl)oxazole-4-carboxamide] | 0.012 to 0.15 |
| CC(C)c1noc(-c2ccc(F)cc2)c1-c1nc(C(=O)Nc2ccc(C3CN(C)C3)cn2)cs1 [Compound 89, 2-(5-(4-fluorophenyl)-3-isopropylisoxazol-4-yl)-N-(5-(1-methylazetidin-3-yl)pyridin-2-yl)thiazole-4-carboxamide] | 0.012 to 0.15 |
| O=C(Nc1ccc(N2CCC2)cn1)c1coc(-c2c(-c3ccc(F)cc3)ncn2C2COC2)n1 [Compound 79, N-(5-(azetidin-1-yl)pyridin-2-yl)-2-(4-(4-fluorophenyl)-1-(oxetan-3-yl)-1H-imidazol-5-yl)oxazole-4-carboxamide] | 0.012 to 0.15 |
| [2H]C([2H])([2H])N1CC(c2ccc(NC(=O)c3coc(-c4c(-c5ccc(F)cc5)ncn4C(C)C)n3)nc2)C1 [Compound 112, 2-[5-(4-fluorophenyl)-3-isopropyl-imidazol-4-yl]-N-[5-[1 (trideuteriomethyl)azetidin-3-yl]-2-pyridyl]oxazole-4-carboxamide] | 0.012 to 0.15 |

Reference: patent publication US20240336611A1 (Insilico Medicine IP Limited, priority 2021, published 2024)
